Data published in ChEMBL document CHEMBL3991601, “The target landscape of clinical kinase drugs” (Science, 2017).
Active and inactive are the calls of the source. For most assays here, no stated cut-off is given here; in the data, actives have a measured Kd and inactives only a lower limit.

Experiments:
[1] = biological target: T1, Peroxisomal acyl-coenzyme A oxidase 3 (Homo sapiens, UniProt O15254)
T1 sequence (O15254 whole entry): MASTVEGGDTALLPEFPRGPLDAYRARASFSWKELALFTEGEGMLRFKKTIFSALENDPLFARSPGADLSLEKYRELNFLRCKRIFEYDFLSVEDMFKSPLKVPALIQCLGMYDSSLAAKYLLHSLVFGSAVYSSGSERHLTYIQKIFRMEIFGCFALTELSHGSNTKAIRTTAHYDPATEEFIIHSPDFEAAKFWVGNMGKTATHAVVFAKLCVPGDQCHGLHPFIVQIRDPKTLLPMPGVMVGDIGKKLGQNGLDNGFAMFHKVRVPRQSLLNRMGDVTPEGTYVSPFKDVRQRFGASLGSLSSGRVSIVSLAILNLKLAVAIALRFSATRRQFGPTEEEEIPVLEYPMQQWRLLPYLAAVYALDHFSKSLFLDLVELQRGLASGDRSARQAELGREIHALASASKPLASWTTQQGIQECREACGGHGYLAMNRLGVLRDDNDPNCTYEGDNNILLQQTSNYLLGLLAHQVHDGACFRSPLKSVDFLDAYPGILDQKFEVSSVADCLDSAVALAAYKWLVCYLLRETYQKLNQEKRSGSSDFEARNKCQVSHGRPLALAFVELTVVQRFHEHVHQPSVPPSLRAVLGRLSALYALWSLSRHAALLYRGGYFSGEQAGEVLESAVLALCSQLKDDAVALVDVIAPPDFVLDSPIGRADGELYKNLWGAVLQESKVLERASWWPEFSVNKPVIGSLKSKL

Activin receptor type-1 = biological target: T2, Activin receptor type-1 (Homo sapiens, UniProt Q04771)
T2 sequence (Q04771 whole entry): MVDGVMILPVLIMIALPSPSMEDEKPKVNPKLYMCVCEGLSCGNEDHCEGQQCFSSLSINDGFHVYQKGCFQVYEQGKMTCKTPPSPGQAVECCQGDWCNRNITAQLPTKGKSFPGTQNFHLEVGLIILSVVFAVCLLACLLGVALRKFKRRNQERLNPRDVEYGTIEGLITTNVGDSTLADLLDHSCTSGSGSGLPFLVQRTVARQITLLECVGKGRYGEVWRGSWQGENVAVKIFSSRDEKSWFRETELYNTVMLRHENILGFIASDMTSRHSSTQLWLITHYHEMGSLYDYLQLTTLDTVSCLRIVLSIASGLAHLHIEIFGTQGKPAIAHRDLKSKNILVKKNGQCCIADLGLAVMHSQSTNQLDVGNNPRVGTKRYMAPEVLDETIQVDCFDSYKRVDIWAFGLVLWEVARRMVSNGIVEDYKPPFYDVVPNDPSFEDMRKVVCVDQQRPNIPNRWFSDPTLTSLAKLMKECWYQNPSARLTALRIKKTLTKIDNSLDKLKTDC

Deoxycytidine kinase = Deoxycytidine kinase (Homo sapiens, UniProt P27707)
Sequence of Deoxycytidine kinase (P27707 whole entry, the tested form may be a part): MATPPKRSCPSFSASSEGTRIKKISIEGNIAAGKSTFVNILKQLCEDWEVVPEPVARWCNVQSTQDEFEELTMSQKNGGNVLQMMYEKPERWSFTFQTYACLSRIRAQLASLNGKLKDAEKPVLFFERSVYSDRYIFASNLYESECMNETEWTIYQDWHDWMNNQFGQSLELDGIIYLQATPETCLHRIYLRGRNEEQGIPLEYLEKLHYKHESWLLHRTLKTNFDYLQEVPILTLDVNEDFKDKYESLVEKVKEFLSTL

[2] = biological target: Epithelial discoidin domain-containing receptor 1 (Homo sapiens, UniProt Q08345)
Sequence of Epithelial discoidin domain-containing receptor 1 (Q08345 whole entry, the tested form may be a part): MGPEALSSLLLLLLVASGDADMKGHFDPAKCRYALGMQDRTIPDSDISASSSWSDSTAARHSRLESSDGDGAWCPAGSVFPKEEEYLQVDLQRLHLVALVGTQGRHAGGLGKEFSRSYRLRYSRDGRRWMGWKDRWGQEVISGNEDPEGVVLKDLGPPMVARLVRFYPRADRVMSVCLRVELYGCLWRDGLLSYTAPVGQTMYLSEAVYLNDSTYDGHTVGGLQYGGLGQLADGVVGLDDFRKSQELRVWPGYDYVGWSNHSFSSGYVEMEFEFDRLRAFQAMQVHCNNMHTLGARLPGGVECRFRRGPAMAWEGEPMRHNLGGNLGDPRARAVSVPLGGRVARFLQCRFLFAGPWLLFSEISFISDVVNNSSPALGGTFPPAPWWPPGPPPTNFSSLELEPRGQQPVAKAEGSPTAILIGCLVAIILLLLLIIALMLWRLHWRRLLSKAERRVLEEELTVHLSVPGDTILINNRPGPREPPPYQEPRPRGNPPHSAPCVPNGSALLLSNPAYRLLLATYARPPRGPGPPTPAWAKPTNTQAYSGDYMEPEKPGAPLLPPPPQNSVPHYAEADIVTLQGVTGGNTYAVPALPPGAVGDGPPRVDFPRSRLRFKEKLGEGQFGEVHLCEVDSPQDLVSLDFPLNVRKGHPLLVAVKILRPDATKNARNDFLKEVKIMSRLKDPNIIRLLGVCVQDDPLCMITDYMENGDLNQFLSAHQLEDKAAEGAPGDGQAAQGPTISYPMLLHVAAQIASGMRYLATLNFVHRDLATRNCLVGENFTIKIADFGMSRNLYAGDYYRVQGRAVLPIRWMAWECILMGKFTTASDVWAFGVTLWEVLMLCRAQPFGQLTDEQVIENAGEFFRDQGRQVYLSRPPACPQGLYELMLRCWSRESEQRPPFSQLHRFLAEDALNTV

[3] = biological target: Eukaryotic translation initiation factor 2-alpha kinase 1 (Homo sapiens, UniProt Q9BQI3)
Sequence of Eukaryotic translation initiation factor 2-alpha kinase 1 (Q9BQI3 whole entry): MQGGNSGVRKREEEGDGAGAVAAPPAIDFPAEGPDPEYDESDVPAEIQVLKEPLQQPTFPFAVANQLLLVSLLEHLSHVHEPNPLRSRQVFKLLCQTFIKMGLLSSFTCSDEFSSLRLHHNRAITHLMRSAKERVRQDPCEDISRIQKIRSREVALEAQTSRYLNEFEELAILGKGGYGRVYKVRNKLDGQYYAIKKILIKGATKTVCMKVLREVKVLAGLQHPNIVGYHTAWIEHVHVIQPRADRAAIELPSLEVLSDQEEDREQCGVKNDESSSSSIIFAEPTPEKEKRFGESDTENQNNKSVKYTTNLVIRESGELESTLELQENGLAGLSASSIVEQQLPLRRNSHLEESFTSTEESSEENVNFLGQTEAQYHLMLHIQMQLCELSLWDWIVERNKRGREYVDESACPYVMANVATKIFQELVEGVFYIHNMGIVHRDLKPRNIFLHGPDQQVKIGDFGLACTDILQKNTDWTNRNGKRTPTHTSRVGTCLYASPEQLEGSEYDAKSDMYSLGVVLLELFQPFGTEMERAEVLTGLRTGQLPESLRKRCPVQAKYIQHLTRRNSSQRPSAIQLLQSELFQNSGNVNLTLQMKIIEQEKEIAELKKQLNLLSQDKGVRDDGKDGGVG

Ephrin type-A receptor 4 = Ephrin type-A receptor 4 (Homo sapiens, UniProt P54764)
Sequence of Ephrin type-A receptor 4 (P54764 whole entry): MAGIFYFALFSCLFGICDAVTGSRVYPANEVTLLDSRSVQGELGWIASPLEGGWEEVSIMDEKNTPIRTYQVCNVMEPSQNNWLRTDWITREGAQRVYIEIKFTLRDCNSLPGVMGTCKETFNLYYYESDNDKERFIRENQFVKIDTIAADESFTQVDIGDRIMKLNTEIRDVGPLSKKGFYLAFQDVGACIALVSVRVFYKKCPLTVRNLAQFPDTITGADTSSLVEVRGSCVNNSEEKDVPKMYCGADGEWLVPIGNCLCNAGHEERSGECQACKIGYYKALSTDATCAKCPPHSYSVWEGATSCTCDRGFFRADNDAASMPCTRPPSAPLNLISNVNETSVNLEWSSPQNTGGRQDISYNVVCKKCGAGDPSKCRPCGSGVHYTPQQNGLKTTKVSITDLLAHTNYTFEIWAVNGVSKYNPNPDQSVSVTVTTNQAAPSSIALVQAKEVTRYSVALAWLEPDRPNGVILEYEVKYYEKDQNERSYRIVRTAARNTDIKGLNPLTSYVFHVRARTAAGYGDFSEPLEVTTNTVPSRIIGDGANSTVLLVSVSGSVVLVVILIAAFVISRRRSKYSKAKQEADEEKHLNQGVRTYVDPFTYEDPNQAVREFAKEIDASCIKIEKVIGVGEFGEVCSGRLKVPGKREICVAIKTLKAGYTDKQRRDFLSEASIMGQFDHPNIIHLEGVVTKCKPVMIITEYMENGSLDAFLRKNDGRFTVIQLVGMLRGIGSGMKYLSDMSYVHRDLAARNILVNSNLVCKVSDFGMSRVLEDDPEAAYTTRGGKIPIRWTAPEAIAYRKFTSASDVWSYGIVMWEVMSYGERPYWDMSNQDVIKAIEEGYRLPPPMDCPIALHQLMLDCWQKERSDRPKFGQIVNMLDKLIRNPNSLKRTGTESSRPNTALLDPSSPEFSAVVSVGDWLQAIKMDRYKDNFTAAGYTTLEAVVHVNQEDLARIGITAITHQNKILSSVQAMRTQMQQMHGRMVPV

[4] = biological target: cAMP-dependent protein kinase catalytic subunit beta (Homo sapiens, UniProt P22694)
[5] = biological target: T3, Serine/threonine-protein kinase D2 (Homo sapiens, UniProt Q9BZL6)
T3 sequence (Q9BZL6 whole entry): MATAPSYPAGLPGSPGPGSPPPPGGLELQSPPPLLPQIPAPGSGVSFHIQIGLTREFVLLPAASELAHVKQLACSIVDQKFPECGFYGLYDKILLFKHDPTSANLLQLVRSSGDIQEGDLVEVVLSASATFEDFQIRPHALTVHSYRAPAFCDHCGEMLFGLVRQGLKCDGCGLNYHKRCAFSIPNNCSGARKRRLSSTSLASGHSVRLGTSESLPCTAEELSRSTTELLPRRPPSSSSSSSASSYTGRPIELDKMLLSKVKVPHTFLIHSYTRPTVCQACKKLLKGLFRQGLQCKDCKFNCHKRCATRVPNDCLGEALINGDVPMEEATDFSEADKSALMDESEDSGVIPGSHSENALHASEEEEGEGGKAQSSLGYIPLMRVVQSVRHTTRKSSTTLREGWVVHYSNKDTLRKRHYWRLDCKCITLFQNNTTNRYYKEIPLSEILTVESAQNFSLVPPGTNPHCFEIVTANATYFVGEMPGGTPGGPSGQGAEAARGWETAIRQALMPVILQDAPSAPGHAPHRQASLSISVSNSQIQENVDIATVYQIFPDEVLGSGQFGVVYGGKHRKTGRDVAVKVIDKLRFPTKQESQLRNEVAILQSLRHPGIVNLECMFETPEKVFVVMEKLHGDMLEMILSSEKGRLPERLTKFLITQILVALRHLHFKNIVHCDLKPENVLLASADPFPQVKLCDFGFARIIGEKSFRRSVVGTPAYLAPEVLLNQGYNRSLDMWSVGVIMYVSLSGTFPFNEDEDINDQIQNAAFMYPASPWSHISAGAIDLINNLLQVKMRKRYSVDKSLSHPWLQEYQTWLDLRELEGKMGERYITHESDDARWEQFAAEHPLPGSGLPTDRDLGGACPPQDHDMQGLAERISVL

Structure (SMILES) | Kd [1] | Kd (Activin receptor type-1) | Kd (Deoxycytidine kinase) | Kd [2] | Kd [3] | Kd (Ephrin type-A receptor 4) | Kd [4] | Kd [5]
O=c1[nH]c([C@@H]2CCCN2)nc2c1oc1ccc(Cl)cc12 | > 30 µM (inactive) | > 30 µM (inactive) | > 30 µM (inactive) | > 30 µM (inactive) | > 30 µM (inactive) | > 30 µM (inactive) | > 30 µM (inactive) | > 30 µM (inactive)
Cn1cc(-c2[nH]c3cc(NC(=O)[C@H](N)C4CCCCC4)cc4c3c2C=NNC4=O)cn1 | > 30 µM (inactive) | > 30 µM (inactive) | > 30 µM (inactive) | > 30 µM (inactive) | > 30 µM (inactive) | > 30 µM (inactive) | > 30 µM (inactive) | > 30 µM (inactive)
CCN1CCN(Cc2ccc(Nc3ncc(F)c(-c4cc(F)c5nc(C)n(C(C)C)c5c4)n3)nc2)CC1 [ABEMACICLIB] | > 30 µM (inactive) | > 30 µM (inactive) | > 30 µM (inactive) | > 30 µM (inactive) | 4.84 µM (active) | > 30 µM (inactive) | > 30 µM (inactive) | 2.06 µM (active)
Cc1c(NC(=O)OC[C@@H]2COCCN2)cn2ncnc(Nc3ccc4c(cnn4Cc4cccc(F)c4)c3)c12 [AC-480] | > 30 µM (inactive) | > 30 µM (inactive) | > 30 µM (inactive) | > 30 µM (inactive) | > 30 µM (inactive) | > 30 µM (inactive) | > 30 µM (inactive) | > 30 µM (inactive)
C=CCn1c(=O)c2cnc(Nc3ccc(N4CCN(C)CC4)cc3)nc2n1-c1cccc(C(C)(C)O)n1 [ADAVOSERTIB] | > 30 µM (inactive) | > 30 µM (inactive) | > 30 µM (inactive) | > 30 µM (inactive) | > 30 µM (inactive) | > 30 µM (inactive) | > 30 µM (inactive) | > 30 µM (inactive)
CN(C)C/C=C/C(=O)Nc1cc2c(Nc3ccc(F)c(Cl)c3)ncnc2cc1O[C@H]1CCOC1 [AFATINIB] | > 30 µM (inactive) | – | > 30 µM (inactive) | – | – | – | – | –
CCc1cc2c(cc1N1CCC(N3CCOCC3)CC1)C(C)(C)c1[nH]c3cc(C#N)ccc3c1C2=O [ALECTINIB] | 2.6 µM (active) | > 30 µM (inactive) | > 30 µM (inactive) | > 30 µM (inactive) | > 30 µM (inactive) | > 30 µM (inactive) | > 30 µM (inactive) | > 30 µM (inactive)
COc1ccc2c(OCc3nnc4ccc(-c5ccccc5)nn34)ccnc2c1 [AMG-208] | > 30 µM (inactive) | > 30 µM (inactive) | > 30 µM (inactive) | > 30 µM (inactive) | > 30 µM (inactive) | > 30 µM (inactive) | > 30 µM (inactive) | > 30 µM (inactive)
S=C(NCc1ccc2c(c1)OCO2)N1CCN(c2ncnc3c2oc2ccccc23)CC1 [AMUVATINIB] | > 30 µM (inactive) | > 30 µM (inactive) | > 30 µM (inactive) | > 30 µM (inactive) | > 30 µM (inactive) | > 30 µM (inactive) | > 30 µM (inactive) | > 30 µM (inactive)
CCN(CCCOc1ccc2c(Nc3cc(CC(=O)Nc4cccc(F)c4)n[nH]3)ncnc2c1)CCOP(=O)(O)O [BARASERTIB] | > 30 µM (inactive) | – | > 30 µM (inactive) | > 30 µM (inactive) | > 30 µM (inactive) | > 30 µM (inactive) | > 30 µM (inactive) | > 30 µM (inactive)
C[C@@]1(C(=O)Nc2ccc(F)nc2)CCCN1c1nc(Nc2cc(C3CC3)n[nH]2)c2cccn2n1 [BMS-754807] | > 30 µM (inactive) | – | > 30 µM (inactive) | – | – | – | – | –
